Measurements reported in patent publication US20050058745A1, “Use of Labiatae herb preparations for extending the flavor shelf life of malt beverages” (priority 2003, published 2005).

Tests used:
[1] = DCIP redox potential of the beer of Example 1, with added air; type: physicochemical; settings: 20 ppm CA, Plus Air
Method: A 10 mg/mL solution of carnosic acid was prepared by taking 250 mg of 100% pure crystal by HPLC and diluting to a total volume of 25 mL with ethanol.
The bottle dosing process from Example 1 was modified to allow for the inclusion of air. • A bottle of the beer was opened, struck sharply on the top to induce foaming (called “fobbing”), and crowned. The fobbing excludes air. The bottle was swirled and inverted. This sample was designated No CA, No Air. • A bottle was opened and dosed with 7.1 mg of CA (20 ppm) to a 12 oz bottle from 710 μL of the above solution. After addition we gave the headspace two puffs of air, from a 25 mL squeeze bulb. The bottle was crowned, swirled and inverted without fobbing. […]
A standard solution of […] sodium salt (DCIP) at a concentration of 145 mg/dL was prepared by the method described in Methodensammlung der Mitteleuropäischen Brautechnischene Analösen Kommission, Vierte Ausgabe 2002, Editor Prof. […] The concentration of DCIP in mg/dL was measured by multiplying the mL of titer by 14.5. […]
The beers were stored in a 39° C. box for 14 days. […] The beers to be analyzed (the four treatments above) were degassed by centrifuging at 6,000 rpm for 15 min. […] Some of the degassed beer was poured to fill a 1 cm cuvette and placed in a spectrophotometer set to record the absorbance at 520 nm. […]
The “Redox Potential” was calculated by using the formula: [formula]

[2] = DCIP redox potential vs CA concentration, light beer; type: physicochemical; settings: 4 hr, 2-4° C.
Method: (§1) The light beer was purchased at a local market and was 2 months old at time of use. Carnosic acid was added via a 1% ethanol solution made with pure CA. The levels of addition were 0, 5, 10, 15 and 20 ppm. The beers were opened, additions made and the beers were fobbed and crowned as described in Example 4. All analyses were done in triplicate using the DCIP method as described in Example 4. The samples were refrigerated for approx. 4 hr before being degassed and analyzed.

[3] = DCIP redox potential vs CA concentration, semi-light beer; type: physicochemical; settings: 4 hr, 2-4° C.
Method: as §1
The same experiment was carried out with a semi-light beer with a production code indicating it was 5 months old.

[4] = HPLC cis/trans ratio of isohumulone in beer stored at 40° C.; type: physicochemical; settings: for Cis/Trans Ratio of Isohumulone: 20 ppm of each constituent
Method: One case of bottles was opened, 20 ppm carnosic acid and 20 ppm rosmarinic acid in the form of a propylene glycol solution was added and the bottles fobbed and crowned according to the procedure detailed in Example 1. An additional case was opened, fobbed and crowned in the same manner, and designated “Control”. All bottles were put in a 40° C. temperature controlled hot room. Samples of the above beer were taken at 0 time, 7, 21, 35, 44 and 58 days for HPLC hop acid analysis by a modification of the method of Burroughs and Williams [1999]. Beer samples (100 mL) were gently poured into tall-form beakers to avoid excessive foaming. Octanol (1-2 drops) was added to minimize foam, and the beer was sparged with helium for 10-15 minutes to degas them. The degased beer was transferred to a 2 mL autosampler vial and assayed according to the method in the reference.
The level of trans declines faster than the level of cis isomers. The trans isomers in this example are 28% of the total hop acids.

[5] = Scaling sensory panel for staling, model citrus beverage; settings: for Panelist staling Average (0 fresh, 10 most stale): 50 ppm (RA/CA: 50 ppm each)
Method: Carbon filtered water was carbonated to 3.5 to 4 times the volume of beer. 59.2 ml of syrup was added to each 355 ml bottle. Each bottle was individually dosed with the treatments listed in Table 22 by adding 1.775 mL of a 1% (weight/volume) solution of carnosol or rosmarinic acid in ethanol to give 50 ppm of each. The bottle was filled to approximately 355 ml with carbonated water before it was capped and inverted. Fresh samples were stored in the refrigerator (0° C.). Heat exposed samples were aged in the oven (32° C.) for seven days. The sensory data were taken in the following manner. Each sample (controls and treatments) was presented to the panelists one time. Panelists rated the beers on a scale of 0-10, with 0 being fresh and 10 being most stale. Panelists were given examples of a fresh and stale material prior to the panel for training on these characteristics. Since the output of the panel as a whole was desired, and not any one individual panelist, the means of each treatment sample in each replicate groups were calculated and tabulated as in Table 24. […] These diluted samples best represent the loss in flavor that occurs when the sample is thermally aged. […] Statistical analysis consisted of doing paired t-Tests on the treatment sample vs. the aged control sample (Table 25). One-tailed tests were used that probed the question whether the […] values of one treatment were lower than that of the other (e.g treatment vs. control). Confidence levels were reported along with p values.

[6] = Flavor stability of flavored malt beverage; settings: 10 ppm CA and 5 ppm CN; 10 ppm RA
Method: To a flavored malt beverage 10 ppm CA and 5 ppm CN, is added, and the beverage aged. To the same beverage, 10 ppm RA is added. […] When RA is added to the CA and or CN, an improvement is observed.

CC(C)c1cc2c(c(O)c1O)[C@@]1(C(=O)O)CCCC(C)(C)[C@@H]1CC2 [CA, carnosic acid]
Redox Initial [1]: 37.0
Redox After 14 Days ([1]; 39° C.): 33.8
Redox Potential ([2]; 5 ppm CA): 28.1
Redox Potential ([2]; 10 ppm CA): 40.5
Redox Potential ([2]; 15 ppm CA): 51.6
Redox Potential ([2]; 20 ppm CA): 67.4
Redox Potential ([3]; 5 ppm CA): 47.4
Redox Potential ([3]; 10 ppm CA): 56.6
Redox Potential ([3]; 15 ppm CA): 64.8
Redox Potential ([3]; 20 ppm CA): 73.9
time up to which the cis/trans level was helped to be maintained ([4]; 20 ppm CA, 40° C.): about 35 days
Cis/Trans Ratio of Isohumulone ([4]; Day 0, 40° C.): 2.699
Cis/Trans Ratio of Isohumulone ([4]; Day 7, 40° C.): 2.850
Cis/Trans Ratio of Isohumulone ([4]; Day 21, 40° C.): 3.947
Cis/Trans Ratio of Isohumulone ([4]; Day 35, 40° C.): 5.450
Cis/Trans Ratio of Isohumulone ([4]; Day 44, 40° C.): 7.974
Cis/Trans Ratio of Isohumulone ([4]; Day 58, 40° C.): 9.863

O=C(/C=C/c1ccc(O)c(O)c1)O[C@H](Cc1ccc(O)c(O)c1)C(=O)O [RA, rosmarinic acid]
Panelist staling Average (0 fresh, 10 most stale) ([5]; Aged (32° C., seven days)): 6.17
Panelist staling Average (0 fresh, 10 most stale) ([5]; Fresh): 0.67
flavor stabilization in model citrus beverage ([5]; scaling study of staling): not an effect flavor stabilizer
flavor stability of aged flavored malt beverage [6]: only slightly better than the control
